Reference: patent US9834514B2, “Antibiotic sensitivity-restoring and photosensitive agents” (New Mexico Tech Research Foundation, priority 2015, dated 2017)
In brackets after ≈: the same amount, converted by molar mass. Like-named read-outs stand apart in the source and are kept apart here.

How the values were obtained:
VRE (ATCC 51299) = assay: Synergy with antibiotics against VRE; type: cell-based, Enterococcus faecalis; details: 75 μM of compound 9 with tetracycline or norfloxacin; FIG. 44
Method: For these experiments, overnight cultures of VRE were diluted to about 5×10^5 CFU/mL in TSB. Then, 1 mL of the diluted broth suspension was added to a borosilicate glass culture tube. After appropriate volumes of the compounds were added to the broth suspensions, the samples were mixed using a vortex mixer, and an appropriate volume of an antibiotic was added to the samples. The samples were mixed using a vortex mixer and incubated for 18 hours at 37° C. on a rotary shaking incubator. After 18 hours, the test cultures were diluted ten-fold, and 10 μL of each dilution was drip-streaked onto a TSA plate and incubated for 18 hours at 37° C. Colony counts were then performed and the CFU/mL values were calculated.
TABLE 24 details the MICs of common antibiotics against VRE. In a 12×75 mm borosilicate glass culture tube, 1 mL of cell suspension was added. Then, compound 7 was added to the cells, and the samples were mixed using a vortex mixer. […] The samples were incubated overnight at 37° C. on a rotary shaking incubator at 100 rpm. Inhibition observed visually compared to each individual treatment was considered synergistic.

[1] = MIC against MRSA isolates; type: cell-based, S. aureus; details: Staphylococcus aureus
Method: The MICs of S. aureus ATCC 33591, BAA-44, BAA-1707, BAA-1717, BAA-1720, BAA-1747, BAA-1754, BAA-1761, BAA-1763, BAA-1764, and BAA-1766 were measured using a cell concentration of about 5×10^5 colony forming units (CFU)/mL. In a 96-well microtiter plate, two-fold dilutions were made of each drug (starting with 100 μM) in 100 μL of a cell suspension in trypticase soy broth (TSB). The samples were incubated overnight at 37° C. on a rotary shaking incubator set at 100 revolutions per minute (rpm) and were visually inspected for turbidity. A 20% well-volume of 3-(4,5-dimethylthiazol-2-yl)-2,5-diphenyltetrazolium bromide (MTT reagent, 5 mg/mL) was added, and the samples were incubated for about 20 minutes. The MICs were determined as the lowest concentration at which full visual inhibition was observed by the unaided eye.

MRSA = assay: Resensitization to antibiotics (log reduction, TABLE 29); type: cell-based, S. aureus
[2] = system: MRSA (ATCC No. BAA-44; ATCC No. BAA-1717); assay: Light-activated killing (photodynamic therapy), colony counts; type: cell-based, S. aureus; details: FIG. 4
Method: Bacterial media was inoculated with bacteria and incubated overnight. The bacterial cultures were diluted to 5×10^8 CFU/mL using a McFarland latex turbidity standard (0.5). Compound 1 was diluted with sterile DMSO, which was added to the cell suspension in a glass culture tube. The cells were then incubated for 30 minutes at 37° C. on a rotary shaking incubator at 150 rpm. 500 μL of the treated cell suspension was added to a well on a sterile ceramic drop plate. Non-coherent white light from a Lumacare™ LC-122 unit was used to irradiate the samples. The end of the light probe was placed 3 cm above the sample well, perpendicular to the surface of the sample, and light was applied for 2 minutes (15 seconds light, 15 seconds dark). 200 μL of the irradiated sample was transferred to a 96-well plastic microtiter plate, and five ten-fold dilutions were made in the media. 10 μL of each dilution was dripped onto an agar media plate and streaked down the plate by tilting the plate down. The agar plates were incubated at 37° C. overnight, and colony counts were performed to calculate the CFU/mL.
Dose-dependent effects of treating bacteria with compound 1 and irradiation with white light were assessed by treating 10^8 CFU/mL of cells with compound 1, followed by irradiation with white light for 2 minutes. Compound 1 was added at a specific concentration to 1 mL of a 10^8 CFU/mL suspension of the respective bacterial cells, and the cells were incubated at 37° C. for approximately 45 minutes on a rotary shaker at 150 rpm. 0.5 mL of the cell suspension was removed and placed into the wells of a sterile ceramic drop plate, and then the cells were irradiated with white light from a Lumacare™ LC 122A light source for 2 minutes at a distance of approximately 3 cm. The time and distance of the light application delivered about 85 J/cm^2 of 400-700 nm light to the sample. After being irradiated, ten-fold dilutions were made of each cell sample. The dilutions were drip-streaked onto a tryptic soy agar (TSA) plate and incubated at 37° C. for 18-24 hours. Enumeration of bacteria was determined from the dilution, which produced a drip-streak containing approximately 30-300 colonies. After counting the colonies, the CFU/mL was calculated by applying the respective dilution factor and a factor of 100 to account for the 10 μL of sample taken. Appropriate controls were prepared, including cells with no treatment, cells with only compound 1 added, and cells only treated with light.

VRE = assay: MIC against VRE; type: cell-based, Enterococcus faecalis; details: Enterococcus, TABLE 23, read-out: VRE MIC
Method: In a 12×75 mm borosilicate glass culture tube, 1 mL of cell suspension was added. Then, compound 7 was added to the cells, and the samples were mixed using a vortex mixer. […] The samples were incubated overnight at 37° C. on a rotary shaking incubator at 100 rpm.

P. aeruginosa = assay: MIC against P. aeruginosa; type: cell-based; details: Pseudomonas aeruginosa, read-out: MIC
Description: Only compound 1 was able to decrease the CFU/mL when used in conjunction with white light to treat P. aeruginosa.

[3] = MRSA (ATCC BAA-44), TABLE 21, read-out: MRSA MIC
[4] = MRSA isolate ATCC 33591, read-out: MIC
[5] = MRSA isolate ATCC BAA-44, read-out: MIC
[6] = MRSA isolate ATCC BAA-1707, read-out: MIC
[7] = MRSA isolate ATCC BAA-1717, read-out: MIC
[8] = MRSA isolate ATCC BAA-1720, read-out: MIC
[9] = MRSA isolate ATCC BAA-1747, read-out: MIC
[10] = MRSA isolate ATCC BAA-1754, read-out: MIC
[11] = MRSA isolate ATCC BAA-1761, read-out: MIC
[12] = MRSA isolate ATCC BAA-1763, read-out: MIC
[13] = MRSA isolate ATCC BAA-1764, read-out: MIC
[14] = MRSA isolate ATCC BAA-1766, read-out: MIC

Which “killing of VRE in conjunction with antibiotics” value (VRE (ATCC 51299)) does the source give for Clc1ccc(/N=N/c2c[nH]c3ccccc23)cc1 [Compound 9] here?
Its value is “more effective at killing VRE”.

What about the MIC [1, 3] of the same compound?
The MIC was 16 µM (≈ 4.09 µg/mL).

What about the MIC [1, 4] of the same compound?
Its MIC is 12.5 µM (≈ 3.2 µg/mL).

What about the MIC [1, 5] of the same compound?
Its MIC is 16 µM (≈ 4.09 µg/mL).

And the MIC [1, 6]?
The MIC was 12.5 µM (≈ 3.2 µg/mL).

What about the MIC [1, 7] of the same compound?
The MIC was 6.3 to 12.5 µM (≈ 1.61 to 3.2 µg/mL).

And the MIC [1, 8]?
The MIC was 12.5 µM (≈ 3.2 µg/mL).

What about the MIC [1, 9] of the same compound?
Its MIC is 12.5 µM (≈ 3.2 µg/mL).

And the MIC [1, 10]?
Its MIC is 12.5 µM (≈ 3.2 µg/mL).

And the MIC [1, 11]?
The MIC was 12.5 µM (≈ 3.2 µg/mL).

And the MIC [1, 12]?
The MIC was 12.5 µM (≈ 3.2 µg/mL).

And the MIC [1, 13]?
The MIC was 12.5 µM (≈ 3.2 µg/mL).

What about the MIC [1, 14] of the same compound?
The MIC was 12.5 µM (≈ 3.2 µg/mL).

What about the “Log Reduction” value (MRSA; compound 8 μM, Norfloxacin (25 μg/mL)) of the same compound?
The value was 2-3.

And the “appearance of MRSA cells in SEM image” value ([2]; compound 9 alone, no light)?
Its value is “undamaged”.

And the “appearance of MRSA cells in SEM image” value ([2]; compound 9 at 25 uM and light (LumaCare))?
Its value is “appear to have burst from the inside”.

And the MIC (VRE)?
The MIC was > 200 µM.

And the MIC (P. aeruginosa)?
Its MIC is > 100 µM.

For Clc1ccc(Oc2c(-c3ccc(Cl)cc3)[nH]c3ccccc23)cc1 [Compound 10], which MIC [1, 3] is on record?
The MIC was 16 µM (≈ 5.67 µg/mL).

What about the MIC [1, 4] of the same compound?
Its MIC is 12.5 µM (≈ 4.43 µg/mL).

And the MIC [1, 5]?
Its MIC is 8 µM (≈ 2.83 µg/mL).

What about the MIC [1, 6] of the same compound?
Its MIC is 12.5 µM (≈ 4.43 µg/mL).

And the MIC [1, 7]?
The MIC was 6.3 µM (≈ 2.23 µg/mL).

And the MIC [1, 8]?
Its MIC is 6.3 µM (≈ 2.23 µg/mL).

What about the MIC [1, 9] of the same compound?
The MIC was 12.5 to 25 µM (≈ 4.43 to 8.86 µg/mL).

And the MIC [1, 10]?
The MIC was 50 µM (≈ 17.7 µg/mL).

What about the MIC [1, 11] of the same compound?
Its MIC is > 100 µM.

What about the MIC [1, 12] of the same compound?
Its MIC is 50 to 100 µM (≈ 17.7 to 35.4 µg/mL).

And the MIC [1, 13]?
Its MIC is > 100 µM.

And the MIC [1, 14]?
The MIC was 25 to 50 µM (≈ 8.86 to 17.7 µg/mL).

And the “Log Reduction” value (MRSA; compound 1 μM, Norfloxacin (15 μg/mL))?
The value was 5-6.

And the MIC (VRE)?
Its MIC is 10 to 20 µM (≈ 3.54 to 7.08 µg/mL).

What about the MIC (P. aeruginosa) of the same compound?
The MIC was > 100 µM.

For Clc1ccc(Oc2c(-c3ccc(Cl)cc3)[nH]c3ccc(Cl)cc23)cc1 [Compound 11], which MIC [1, 3] is on record?
The MIC was 8 µM (≈ 3.11 µg/mL).

What about the MIC [1, 4] of the same compound?
Its MIC is 6.3 to 12.5 µM (≈ 2.45 to 4.86 µg/mL).

And the MIC [1, 5]?
Its MIC is 4 µM (≈ 1.55 µg/mL).

What about the MIC [1, 6] of the same compound?
Its MIC is 12.5 µM (≈ 4.86 µg/mL).

What about the MIC [1, 7] of the same compound?
The MIC was 3.1 to 6.3 µM (≈ 1.2 to 2.45 µg/mL).

And the MIC [1, 8]?
The MIC was 3.1 to 6.3 µM (≈ 1.2 to 2.45 µg/mL).

And the MIC [1, 9]?
The MIC was 6.3 to 12.5 µM (≈ 2.45 to 4.86 µg/mL).

And the MIC [1, 10]?
The MIC was 50 to 100 µM (≈ 19.4 to 38.9 µg/mL).

What about the MIC [1, 11] of the same compound?
The MIC was 50 to 100 µM (≈ 19.4 to 38.9 µg/mL).

And the MIC [1, 12]?
The MIC was 50 µM (≈ 19.4 µg/mL).

And the MIC [1, 13]?
Its MIC is 50 µM (≈ 19.4 µg/mL).

What about the MIC [1, 14] of the same compound?
Its MIC is 50 to 100 µM (≈ 19.4 to 38.9 µg/mL).

And the “Log Reduction” value (MRSA; compound 0.5 μM, Norfloxacin (20 μg/mL))?
The value was 8.

And the “Log Reduction” value (MRSA; compound 0.5 μM, Oxacillin (100 μg/mL))?
The value was 5.

And the MIC (VRE)?
Its MIC is 20 µM (≈ 7.77 µg/mL).

What about the MIC (P. aeruginosa) of the same compound?
Its MIC is > 100 µM.
